From ChEMBL document CHEMBL1150291, “Discovery of potent, orally bioavailable, selective 5-HT1A/B/D receptor antagonists” (J Med Chem, 2008)

Key:
[1] = target: T1, 5-hydroxytryptamine receptor 1A (Homo sapiens, UniProt P08908)
T1 sequence (P08908 whole entry): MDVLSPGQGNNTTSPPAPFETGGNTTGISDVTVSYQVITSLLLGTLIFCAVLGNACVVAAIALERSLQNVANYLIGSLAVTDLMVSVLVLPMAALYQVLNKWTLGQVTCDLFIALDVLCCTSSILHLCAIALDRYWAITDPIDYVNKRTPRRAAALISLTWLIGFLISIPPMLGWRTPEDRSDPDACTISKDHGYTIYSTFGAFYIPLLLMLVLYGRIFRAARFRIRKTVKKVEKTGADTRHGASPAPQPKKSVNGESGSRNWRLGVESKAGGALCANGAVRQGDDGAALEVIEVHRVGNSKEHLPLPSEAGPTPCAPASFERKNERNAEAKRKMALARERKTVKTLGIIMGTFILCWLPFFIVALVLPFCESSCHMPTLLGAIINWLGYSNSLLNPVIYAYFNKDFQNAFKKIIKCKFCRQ

[2] = target: T1, 5-hydroxytryptamine receptor 1A; remark: listed apart in the source
[3] = target: T2, 5-hydroxytryptamine receptor 1B (Homo sapiens, UniProt P28222)
T2 sequence (P28222 whole entry): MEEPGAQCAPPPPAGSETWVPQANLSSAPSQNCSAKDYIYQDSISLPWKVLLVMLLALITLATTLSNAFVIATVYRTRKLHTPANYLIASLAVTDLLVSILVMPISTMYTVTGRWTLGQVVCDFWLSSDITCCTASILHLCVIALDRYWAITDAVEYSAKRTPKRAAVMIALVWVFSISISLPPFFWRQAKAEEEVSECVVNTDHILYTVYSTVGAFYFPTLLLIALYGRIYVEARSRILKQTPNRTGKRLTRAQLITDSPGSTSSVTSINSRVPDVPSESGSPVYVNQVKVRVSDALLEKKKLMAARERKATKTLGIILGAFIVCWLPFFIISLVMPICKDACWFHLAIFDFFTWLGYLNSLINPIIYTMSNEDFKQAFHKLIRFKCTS

[4] = target: T3, 5-hydroxytryptamine receptor 1D (Homo sapiens, UniProt P28221)
T3 sequence (P28221 whole entry): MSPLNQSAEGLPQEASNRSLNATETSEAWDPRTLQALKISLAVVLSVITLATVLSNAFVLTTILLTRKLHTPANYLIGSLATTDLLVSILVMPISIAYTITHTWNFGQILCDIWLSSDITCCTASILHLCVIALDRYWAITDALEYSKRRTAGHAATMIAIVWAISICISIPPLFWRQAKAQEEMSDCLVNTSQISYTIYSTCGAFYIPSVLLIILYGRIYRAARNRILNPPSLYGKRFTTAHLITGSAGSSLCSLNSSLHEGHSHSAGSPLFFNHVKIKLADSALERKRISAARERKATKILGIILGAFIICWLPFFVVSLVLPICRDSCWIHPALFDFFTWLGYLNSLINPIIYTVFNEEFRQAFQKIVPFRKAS

[5] = target: Sodium-dependent serotonin transporter (Rattus norvegicus, UniProt P31652)
Chain of Sodium-dependent serotonin transporter (Rattus norvegicus, UniProt P31652) (P31652 whole entry): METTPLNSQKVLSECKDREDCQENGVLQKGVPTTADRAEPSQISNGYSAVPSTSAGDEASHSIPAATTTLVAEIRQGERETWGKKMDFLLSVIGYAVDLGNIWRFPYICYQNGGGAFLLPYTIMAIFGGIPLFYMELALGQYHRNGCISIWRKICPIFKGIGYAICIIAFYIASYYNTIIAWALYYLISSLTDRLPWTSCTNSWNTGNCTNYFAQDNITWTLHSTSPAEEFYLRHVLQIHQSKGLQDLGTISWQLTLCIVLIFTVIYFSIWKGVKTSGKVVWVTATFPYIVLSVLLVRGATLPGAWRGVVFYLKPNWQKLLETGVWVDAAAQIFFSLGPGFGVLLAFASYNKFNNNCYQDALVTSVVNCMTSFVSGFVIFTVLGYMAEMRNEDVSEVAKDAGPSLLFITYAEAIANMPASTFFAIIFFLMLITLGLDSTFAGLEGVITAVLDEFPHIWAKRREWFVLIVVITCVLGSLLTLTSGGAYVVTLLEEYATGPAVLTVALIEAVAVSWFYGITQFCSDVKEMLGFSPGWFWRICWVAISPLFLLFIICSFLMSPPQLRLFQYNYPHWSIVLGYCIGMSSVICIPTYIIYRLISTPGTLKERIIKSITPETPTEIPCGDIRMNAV
Description: Inhibition of [3H]5HT uptake at SERT in rat cortical synaptosomes

[6] = target: T2, 5-hydroxytryptamine receptor 1B; experiment: Displacement of [3H]5HT from human recombinant 5HT1B receptor relative to control
[7] = target: T3, 5-hydroxytryptamine receptor 1D; experiment: Displacement of [3H]5HT from human recombinant 5HT1D receptor relative to control
[8] = Clearance in rat at 1 mg/kg, iv; type: ADME, organism-based; set-up: dose 1 mg/kg, route intravenous; conditions: in vivo
[9] = Half life in rat at 1 mg/kg, iv; type: ADME, organism-based; set-up: dose 1 mg/kg, route intravenous; conditions: in vivo
[10] = Ratio of drug level in brain to blood in rat at 3 mg/kg, po; type: ADME, organism-based; set-up: dose 3 mg/kg, route oral; conditions: read-out: BBR
[11] = Volume of distribution at steady state in rat at 1 mg/kg, iv; type: ADME, organism-based; set-up: dose 1 mg/kg, route intravenous; conditions: in vivo, read-out: Vdss
[12] = Cmax in rat brain at 3 mg/kg, po; type: ADME, organism-based; set-up: dose 3 mg/kg, route oral
Rattus norvegicus = experiment: Reversal of SKF-99101-induced increase in seizure threshold in orally dosed rat by electroshock threshold test; type: functional
[13] = target: 5-hydroxytryptamine receptor 1E (Homo sapiens, UniProt P28566); experiment: Displacement of radioligand from human cloned 5HT1E receptor
Chain of 5-hydroxytryptamine receptor 1E (P28566 whole entry): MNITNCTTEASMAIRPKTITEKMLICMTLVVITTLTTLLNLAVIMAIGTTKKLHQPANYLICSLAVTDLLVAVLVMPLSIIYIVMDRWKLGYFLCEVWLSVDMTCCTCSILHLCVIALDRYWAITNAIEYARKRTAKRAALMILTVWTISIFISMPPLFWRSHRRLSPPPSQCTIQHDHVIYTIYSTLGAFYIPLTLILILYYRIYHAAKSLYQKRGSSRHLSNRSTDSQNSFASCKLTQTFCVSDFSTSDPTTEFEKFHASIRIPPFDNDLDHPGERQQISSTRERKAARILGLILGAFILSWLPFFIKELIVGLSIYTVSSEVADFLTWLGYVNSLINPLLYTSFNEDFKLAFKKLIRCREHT

[14] = target: T4, 5-hydroxytryptamine receptor 1F (Homo sapiens, UniProt P30939); experiment: Displacement of radioligand from human cloned 5HT1F receptor
T4 sequence (P30939 whole entry): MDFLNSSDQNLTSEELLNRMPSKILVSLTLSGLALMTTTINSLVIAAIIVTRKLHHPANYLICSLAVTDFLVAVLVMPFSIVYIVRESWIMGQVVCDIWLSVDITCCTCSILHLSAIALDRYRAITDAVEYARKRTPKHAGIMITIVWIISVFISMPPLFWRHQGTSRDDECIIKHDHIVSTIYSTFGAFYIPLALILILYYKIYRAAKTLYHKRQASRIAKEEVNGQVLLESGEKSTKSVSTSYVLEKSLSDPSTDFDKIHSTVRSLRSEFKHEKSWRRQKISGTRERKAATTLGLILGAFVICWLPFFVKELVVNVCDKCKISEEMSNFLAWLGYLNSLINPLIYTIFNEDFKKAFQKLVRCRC

[15] = target: 5-hydroxytryptamine receptor 2A (Homo sapiens, UniProt P28223); experiment: Displacement of radioligand from human cloned 5HT2A receptor
Chain of 5-hydroxytryptamine receptor 2A (P28223 whole entry): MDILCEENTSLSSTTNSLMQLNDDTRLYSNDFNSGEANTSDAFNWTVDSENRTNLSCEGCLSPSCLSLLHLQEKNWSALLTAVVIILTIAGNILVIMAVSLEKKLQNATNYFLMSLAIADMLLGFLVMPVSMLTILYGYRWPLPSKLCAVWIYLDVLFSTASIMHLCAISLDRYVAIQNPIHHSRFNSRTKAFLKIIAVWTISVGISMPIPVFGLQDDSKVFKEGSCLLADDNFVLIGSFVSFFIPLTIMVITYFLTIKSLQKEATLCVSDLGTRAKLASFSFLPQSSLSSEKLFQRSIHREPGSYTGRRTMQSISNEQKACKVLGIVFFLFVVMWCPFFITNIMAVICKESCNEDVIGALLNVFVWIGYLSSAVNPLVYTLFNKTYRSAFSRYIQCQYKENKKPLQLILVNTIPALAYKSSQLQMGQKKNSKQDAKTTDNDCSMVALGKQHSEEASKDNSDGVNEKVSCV

[16] = target: 5-hydroxytryptamine receptor 2B (Homo sapiens, UniProt P41595); experiment: Displacement of radioligand from human cloned 5HT2B receptor
[17] = target: T5, 5-hydroxytryptamine receptor 2C (Homo sapiens, UniProt P28335); experiment: Displacement of radioligand from human cloned 5HT2C receptor
T5 sequence (P28335 whole entry): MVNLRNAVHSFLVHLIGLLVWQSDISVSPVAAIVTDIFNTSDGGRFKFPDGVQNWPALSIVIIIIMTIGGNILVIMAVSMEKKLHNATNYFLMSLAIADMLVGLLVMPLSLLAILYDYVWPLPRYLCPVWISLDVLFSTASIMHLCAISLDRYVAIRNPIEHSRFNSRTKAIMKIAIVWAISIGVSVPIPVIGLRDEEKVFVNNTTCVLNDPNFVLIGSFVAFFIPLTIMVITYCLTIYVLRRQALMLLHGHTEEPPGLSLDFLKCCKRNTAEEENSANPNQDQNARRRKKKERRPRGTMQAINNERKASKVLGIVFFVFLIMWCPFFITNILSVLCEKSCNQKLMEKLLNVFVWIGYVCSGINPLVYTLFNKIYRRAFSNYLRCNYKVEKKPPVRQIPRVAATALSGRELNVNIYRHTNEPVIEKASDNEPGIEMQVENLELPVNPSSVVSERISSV

[18] = target: 5-hydroxytryptamine receptor 4 (Homo sapiens, UniProt Q13639); experiment: Displacement of radioligand from human cloned 5HT4 receptor
Chain of 5-hydroxytryptamine receptor 4 (Q13639 whole entry): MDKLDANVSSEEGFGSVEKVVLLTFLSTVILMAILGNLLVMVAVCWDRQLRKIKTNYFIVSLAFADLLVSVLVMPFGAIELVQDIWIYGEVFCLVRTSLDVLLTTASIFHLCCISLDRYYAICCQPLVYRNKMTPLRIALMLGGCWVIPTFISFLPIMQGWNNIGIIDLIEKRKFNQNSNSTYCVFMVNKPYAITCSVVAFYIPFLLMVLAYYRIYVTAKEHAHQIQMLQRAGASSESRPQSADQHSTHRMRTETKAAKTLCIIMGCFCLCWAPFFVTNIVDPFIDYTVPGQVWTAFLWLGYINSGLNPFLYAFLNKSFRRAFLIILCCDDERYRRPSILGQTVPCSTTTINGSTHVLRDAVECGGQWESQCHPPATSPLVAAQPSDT

[19] = target: 5-hydroxytryptamine receptor 6 (Homo sapiens, UniProt P50406); experiment: Displacement of radioligand from human cloned 5HT6 receptor
Chain of 5-hydroxytryptamine receptor 6 (P50406 whole entry): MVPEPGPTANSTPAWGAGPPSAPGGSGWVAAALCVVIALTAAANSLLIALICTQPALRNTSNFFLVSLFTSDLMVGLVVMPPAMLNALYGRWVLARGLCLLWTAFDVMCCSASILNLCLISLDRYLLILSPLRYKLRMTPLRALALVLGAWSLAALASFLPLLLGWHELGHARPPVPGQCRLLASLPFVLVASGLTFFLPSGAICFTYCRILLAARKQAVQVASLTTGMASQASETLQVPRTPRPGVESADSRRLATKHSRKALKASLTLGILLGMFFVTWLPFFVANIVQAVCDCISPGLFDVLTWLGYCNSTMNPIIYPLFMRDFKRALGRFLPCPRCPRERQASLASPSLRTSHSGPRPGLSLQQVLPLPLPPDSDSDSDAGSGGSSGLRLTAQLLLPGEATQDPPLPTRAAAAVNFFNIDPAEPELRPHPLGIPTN

[20] = target: 5-hydroxytryptamine receptor 7 (Homo sapiens, UniProt P34969); experiment: Displacement of radioligand from human cloned 5HT7 receptor
Chain of 5-hydroxytryptamine receptor 7 (P34969 whole entry): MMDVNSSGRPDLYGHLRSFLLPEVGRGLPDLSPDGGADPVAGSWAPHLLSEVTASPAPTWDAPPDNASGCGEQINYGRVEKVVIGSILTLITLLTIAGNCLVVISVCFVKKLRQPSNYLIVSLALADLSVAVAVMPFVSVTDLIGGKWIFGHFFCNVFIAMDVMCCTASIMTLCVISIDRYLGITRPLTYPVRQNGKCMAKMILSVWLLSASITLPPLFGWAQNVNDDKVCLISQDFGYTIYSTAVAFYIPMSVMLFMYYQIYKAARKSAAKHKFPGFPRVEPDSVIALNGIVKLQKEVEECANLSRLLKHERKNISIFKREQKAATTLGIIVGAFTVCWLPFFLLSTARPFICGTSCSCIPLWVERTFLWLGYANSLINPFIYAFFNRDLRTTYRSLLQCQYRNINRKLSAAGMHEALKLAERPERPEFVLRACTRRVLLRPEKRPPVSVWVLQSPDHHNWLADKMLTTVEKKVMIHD

[21] = target: Sodium-dependent serotonin transporter (Homo sapiens, UniProt P31645); experiment: Displacement of radioligand from human cloned SERT
Chain of Sodium-dependent serotonin transporter (Homo sapiens, UniProt P31645) (P31645 whole entry): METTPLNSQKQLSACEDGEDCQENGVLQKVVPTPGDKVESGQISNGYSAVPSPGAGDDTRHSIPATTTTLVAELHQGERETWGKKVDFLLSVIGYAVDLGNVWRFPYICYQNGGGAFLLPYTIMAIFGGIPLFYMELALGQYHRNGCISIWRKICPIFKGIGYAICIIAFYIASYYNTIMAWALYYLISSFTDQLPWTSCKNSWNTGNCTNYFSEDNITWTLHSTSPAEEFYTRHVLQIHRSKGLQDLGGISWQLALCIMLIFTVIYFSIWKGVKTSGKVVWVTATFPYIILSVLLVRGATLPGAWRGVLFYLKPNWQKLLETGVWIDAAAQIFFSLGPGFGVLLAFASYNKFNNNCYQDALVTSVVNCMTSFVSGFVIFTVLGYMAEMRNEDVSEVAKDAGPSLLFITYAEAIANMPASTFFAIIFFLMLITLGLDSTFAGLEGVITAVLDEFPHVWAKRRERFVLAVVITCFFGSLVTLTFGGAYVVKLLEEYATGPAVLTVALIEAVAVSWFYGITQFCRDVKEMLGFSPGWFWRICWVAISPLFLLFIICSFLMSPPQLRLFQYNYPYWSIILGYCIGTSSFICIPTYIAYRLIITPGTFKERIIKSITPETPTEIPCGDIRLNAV

[22] = target: T6, Alpha-1B adrenergic receptor (Homo sapiens, UniProt P35368); experiment: Displacement of radioligand from human cloned adrenergic Alpha-1B receptor
T6 sequence (P35368 whole entry): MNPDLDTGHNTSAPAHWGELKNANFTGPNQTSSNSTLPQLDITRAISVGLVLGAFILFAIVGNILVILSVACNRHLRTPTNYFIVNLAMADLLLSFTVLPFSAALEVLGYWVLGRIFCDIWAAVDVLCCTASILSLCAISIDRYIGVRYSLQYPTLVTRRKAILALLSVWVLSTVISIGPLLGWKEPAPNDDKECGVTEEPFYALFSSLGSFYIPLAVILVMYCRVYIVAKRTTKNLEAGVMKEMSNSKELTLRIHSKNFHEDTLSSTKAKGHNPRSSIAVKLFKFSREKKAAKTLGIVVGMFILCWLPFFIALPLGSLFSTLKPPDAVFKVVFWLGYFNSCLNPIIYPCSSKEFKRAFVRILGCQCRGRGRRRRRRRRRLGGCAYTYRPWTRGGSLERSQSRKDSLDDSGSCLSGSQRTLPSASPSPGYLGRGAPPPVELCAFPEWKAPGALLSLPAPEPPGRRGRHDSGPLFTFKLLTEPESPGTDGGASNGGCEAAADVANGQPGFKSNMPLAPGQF

[23] = target: Beta-2 adrenergic receptor (Homo sapiens, UniProt P07550); experiment: Displacement of radioligand from human cloned adrenergic beta2 receptor
Chain of Beta-2 adrenergic receptor (P07550 whole entry): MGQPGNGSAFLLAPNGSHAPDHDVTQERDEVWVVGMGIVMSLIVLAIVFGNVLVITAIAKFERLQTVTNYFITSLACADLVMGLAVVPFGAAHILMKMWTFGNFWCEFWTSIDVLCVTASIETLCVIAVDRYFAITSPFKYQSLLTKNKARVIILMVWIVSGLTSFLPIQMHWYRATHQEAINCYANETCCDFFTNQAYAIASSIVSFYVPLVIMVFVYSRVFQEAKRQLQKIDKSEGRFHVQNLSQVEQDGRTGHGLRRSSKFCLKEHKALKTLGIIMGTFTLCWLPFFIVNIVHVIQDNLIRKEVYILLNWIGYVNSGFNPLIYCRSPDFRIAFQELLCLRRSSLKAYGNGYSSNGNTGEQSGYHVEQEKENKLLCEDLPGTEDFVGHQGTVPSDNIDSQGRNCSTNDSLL

[24] = target: 5-hydroxytryptamine receptor 5A (Homo sapiens, UniProt P47898)
Chain of 5-hydroxytryptamine receptor 5A (P47898 whole entry): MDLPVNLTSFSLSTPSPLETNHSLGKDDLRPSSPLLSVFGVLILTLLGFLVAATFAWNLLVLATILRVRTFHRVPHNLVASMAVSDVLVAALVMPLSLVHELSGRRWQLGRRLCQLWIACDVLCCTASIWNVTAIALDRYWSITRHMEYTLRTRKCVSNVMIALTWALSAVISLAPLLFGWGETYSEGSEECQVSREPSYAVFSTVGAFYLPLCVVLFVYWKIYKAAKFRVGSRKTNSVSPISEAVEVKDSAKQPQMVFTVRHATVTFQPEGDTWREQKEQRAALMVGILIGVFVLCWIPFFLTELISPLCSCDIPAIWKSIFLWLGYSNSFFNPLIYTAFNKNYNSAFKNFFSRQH
Description: Displacement of radioligand from human cloned 5HT5A receptor

D(2) dopamine receptor = D(2) dopamine receptor (Homo sapiens, UniProt P14416)
Description: Displacement of radioligand from human cloned dopamine D2 receptor

Structure (SMILES)	Ki [2] [µM]	Ki [3] [µM]	Ki [4] [µM]	Ki [5] [µM]	Intrinsic activity [6]	Intrinsic activity [7]	clearance [8] [mL/min/kg]	half-life [9] [min]	Vd [11] [L/kg]	Cmax [12] [ng/g]	other results
Cc1ccc2c(OCCN3CCN(Cc4ccccc4)CC3)cccc2n1	0.2	0.251	0.001	0.794	–	–	–	–	–	–	Ki [1]: 0.0251 µM
CCNC(=O)Nc1cccc(CC2CCN(CCOc3cccc4nc(C)ccc34)CC2)c1	0.0316	0.0251	0.000251	0.251	0.2	0.3	–	–	–	–	–
Cc1ccc2c(OCCN3CCC(Cc4cccc(N5CCCC5=O)c4)CC3)cccc2n1	0.00631	0.02	0.002	0.2	0.4	0.5	35	78	1.5	410	Kp [10]: 1.2
Cc1ccc2c(OCCN3CCC(Cc4cccc(NS(C)(=O)=O)c4)CC3)cccc2n1	0.00251	0.002	0.000501	1	0.3	–	38	36	1.6	346	Kp [10]: 0.2; Activity (Rattus norvegicus): Dose-dependent effect; Ki [13]: 2.51 µM; Ki [14]: 0.501 µM; Ki [15]: 2.51 µM; Ki [16]: 2 µM; Ki [17]: > 1 µM; Ki [18]: > 10 µM; Ki [19]: > 10 µM; Ki [20]: 0.02 µM; Ki [21]: 1.58 µM; Ki [22]: 0.2 µM; Ki [23]: 0.501 µM; Ki [24]: 1.26 µM; Ki (D(2) dopamine receptor): 0.0631 µM
Cc1ccc2c(OCCN3CCC(Cc4cccc(NS(=O)(=O)C(C)C)c4)CC3)cccc2n1	0.00251	0.00126	0.000398	0.398	0.3	0.4	–	–	–	–	–
CC(=O)Nc1cccc(CC2CCN(CCOc3cccc4nc(C)ccc34)CC2)c1	0.0251	0.02	0.000501	0.501	0.3	0.5	47	36	1.2	221	Kp [10]: 1.1
CCC(=O)Nc1cccc(CC2CCN(CCOc3cccc4nc(C)ccc34)CC2)c1	0.0251	0.0158	0.000631	0.794	0.3	0.3	–	–	–	–	–
CCN(C(C)=O)c1cccc(CC2CCN(CCOc3cccc4nc(C)ccc34)CC2)c1	0.00501	0.1	0.00158	0.794	0.3	0.6	34	66	1.9	234	–
Cc1ccc2c(OCCN3CCC(Cc4cccc(N5CCCS5(=O)=O)c4)CC3)cccc2n1	0.00794	0.0126	0.00158	0.794	0.5	0.4	39	54	0.9	287	Kp [10]: 0.9; Ki [13]: > 10 µM; Ki [14]: 1 µM; Ki [15]: > 6.31 µM; Ki [16]: > 1 µM; Ki [17]: > 3.98 µM; Ki [18]: 7.94 µM; Ki [19]: 1.58 µM; Ki [20]: 0.0158 µM; Ki [21]: 0.398 µM; Ki [22]: 0.158 µM; Ki [23]: 1.58 µM; Ki [24]: 1.58 µM; Ki (D(2) dopamine receptor): 0.501 µM
COc1cccc(CN2CCN(CCOc3cccc4nc(C)ccc34)CC2)c1	–	0.158	0.00251	0.631	–	–	–	–	–	–	Ki [1]: 0.0126 µM
CC(=O)N(C)c1cccc(CC2CCN(CCOc3cccc4nc(C)ccc34)CC2)c1	0.0251	0.0398	0.00126	0.0794	0.3	0.6	37	72	2.2	190	–
COc1ccc(CC2CCN(CCOc3cccc4nc(C)ccc34)CC2)cc1NS(C)(=O)=O	0.126	0.0398	0.00631	0.631	–	–	–	–	–	–	–
CC(=O)N(C)c1cccc(CN2CCN(CCOc3cccc4nc(C)ccc34)CC2)c1	0.251	0.0501	0.000316	1	–	–	–	–	–	–	–
CC(=O)Nc1cccc(CN2CCN(CCOc3cccc4nc(C)ccc34)CC2)c1	0.2	0.02	0.000501	1.26	–	–	–	–	–	–	Ki [1]: 0.002 µM
COc1ccc(CN2CCN(CCOc3cccc4nc(C)ccc34)CC2)cc1	0.0501	0.501	0.0126	0.398	–	–	–	–	–	–	Ki [1]: 0.00501 µM
Cc1nc(-c2ccc(-c3ccc(C(=O)N4CCc5cc6c(cc54)C4(CCN(C)CC4)CO6)cc3)c(C)c2)no1 [SB-224289]	–	–	–	–	–	–	–	–	–	–	ED50 (Rattus norvegicus; po): 1 mg/kg
Cc1ccc2c(OCCN3CCC(Cc4cccc(NC(=O)C(C)C)c4)CC3)cccc2n1	0.00631	0.0501	0.00126	0.501	0.3	0.4	45	54	1.8	175	Kp [10]: 2.3
Cc1ccc2c(OCCN3CCC(Cc4cccc(N(C)S(C)(=O)=O)c4)CC3)cccc2n1	0.0126	0.0126	0.00158	1	0	0.5	–	–	–	–	–
CC(=O)Nc1ccc(CN2CCN(CCOc3cccc4nc(C)ccc34)CC2)cc1	–	1.26	0.2	1.58	–	–	–	–	–	–	Ki [1]: 0.158 µM
CC(=O)Nc1ccccc1CN1CCN(CCOc2cccc3nc(C)ccc23)CC1	1.26	1.58	0.00501	10	–	–	–	–	–	–	–
Cc1ccc2c(OCCN3CCC(Cc4cccc(NC(=O)CN(C)C)c4)CC3)cccc2n1	0.0158	0.00631	0.001	0.398	0.2	0.4	–	–	–	–	–
